Test results from PMC7059547, “Synthesis and herbicidal activities of aryloxyacetic acid derivatives as HPPD inhibitors” (Beilstein Journal of Organic Chemistry, 2020).

Assays:
[1] = target: T1, Arabidopsis thaliana HPPD (AtHPPD) (Arabidopsis thaliana, UniProt P93836); assay: AtHPPD enzyme inhibition study; format: biochemical; details: read-out: AtHPPD inhibition Ki
T1 construct: made in house
T1 sequence (P93836 1-445): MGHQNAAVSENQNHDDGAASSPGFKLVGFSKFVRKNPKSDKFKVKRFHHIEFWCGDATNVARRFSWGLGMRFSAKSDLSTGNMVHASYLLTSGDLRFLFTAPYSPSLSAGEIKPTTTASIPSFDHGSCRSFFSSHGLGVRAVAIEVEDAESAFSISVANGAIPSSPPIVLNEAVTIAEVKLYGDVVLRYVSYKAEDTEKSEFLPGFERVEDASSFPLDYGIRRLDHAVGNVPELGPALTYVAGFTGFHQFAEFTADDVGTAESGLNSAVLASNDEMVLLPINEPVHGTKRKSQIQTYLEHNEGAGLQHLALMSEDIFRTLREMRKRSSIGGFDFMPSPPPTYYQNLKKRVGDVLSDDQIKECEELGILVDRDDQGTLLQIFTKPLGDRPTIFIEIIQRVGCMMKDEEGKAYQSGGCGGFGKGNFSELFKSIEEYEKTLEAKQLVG
Protocol: AtHPPD was prepared and puriﬁed according to the reported methods in the literature [19–2035–37].

[2] = system: E. crus-galli, S. faberii, D. sanguinalis, A. retroflexus, E. prostrata, A. juncea; assay: Post-emergence greenhouse herbicidal activity; format: in vivo; design: Sum of inhibition rate: scale not given here; details: post-emergence, 150 g ai/ha; for Sum of inhibition rate: sum over six weeds (AJ, AR, EP, DS, EC, SF), 18 days after treatment

SMILES	Ki [1]	Sum of inhibition rate [2]	herbicidal activity (in words) [2]
Cn1nc(C2CC2)c(C(=O)COc2ccccc2)c1O [I1]	1500 ± 31 nM	60	–
Cn1nc(C(F)(F)F)c(C(=O)COc2ccccc2)c1O [I2]	1300 ± 17 nM	40	–
Cn1nc(C2CC2)c(C(=O)COc2ccccc2Cl)c1O [I3]	360 ± 12 nM	80	–
Cn1nc(C(F)(F)F)c(C(=O)COc2ccccc2Cl)c1O [I4]	590 ± 43 nM	40	–
CC1(C)CC(=O)C(C(=O)COc2ccc(Cl)cc2)=C(O)C1 [I5]	1000 ± 36 nM	110	–
Cn1nc(C(F)(F)F)c(C(=O)COc2ccc(Cl)cc2)c1O [I6]	930 ± 32 nM	180	–
Cn1nc(C2CC2)c(C(=O)COc2ccc(Cl)cc2Cl)c1O [I7]	360 ± 12 nM	210	–
Cn1nc(C(F)(F)F)c(C(=O)COc2ccc(Cl)cc2Cl)c1O [I8]	220 ± 23 nM	170	–
CC1(C)CC(=O)C(C(=O)COc2c(Cl)cc(Cl)cc2Cl)=C(O)C1 [I9]	310 ± 48 nM	70	–
Cc1nn(C)c(O)c1C(=O)COc1c(Cl)cc(Cl)cc1Cl [I10]	240 ± 3 nM	60	–
Cn1nc(C2CC2)c(C(=O)COc2c(Cl)cc(Cl)cc2Cl)c1O [I11]	81 ± 1 nM	335	–
Cn1nc(C(F)(F)F)c(C(=O)COc2c(Cl)cc(Cl)cc2Cl)c1O [I12]	–	335	poorer than expected herbicidal activity
CC1(C)CC(=O)C(C(=O)COc2ccccc2[N+](=O)[O-])=C(O)C1 [I13]	450 ± 33 nM	30	–
Cc1nn(C)c(O)c1C(=O)COc1ccccc1[N+](=O)[O-] [I14]	210 ± 42 nM	40	–
Cn1nc(C2CC2)c(C(=O)COc2ccccc2[N+](=O)[O-])c1O [I15]	270 ± 4 nM	40	–
Cn1nc(C(F)(F)F)c(C(=O)COc2ccccc2[N+](=O)[O-])c1O [I16]	440 ± 13 nM	10	–
O=C1CCCC(O)=C1C(=O)COc1ccc([N+](=O)[O-])cc1 [I17]	230 ± 4 nM	80	–
CC1(C)CC(=O)C(C(=O)COc2ccc([N+](=O)[O-])cc2)=C(O)C1 [I18]	930 ± 6 nM	70	–
Cc1nn(C)c(O)c1C(=O)COc1ccc([N+](=O)[O-])cc1 [I19]	630 ± 2 nM	100	–
Cn1nc(C2CC2)c(C(=O)COc2ccc([N+](=O)[O-])cc2)c1O [I20]	500 ± 3 nM	60	–
Cn1nc(C(F)(F)F)c(C(=O)COc2ccc([N+](=O)[O-])cc2)c1O [I21]	1500 ± 41 nM	100	–
CC1(C)CC(=O)C(C(=O)COc2ccc([N+](=O)[O-])cc2Cl)=C(O)C1 [I22]	1020 ± 9 nM	70	–
Cc1nn(C)c(O)c1C(=O)COc1ccc([N+](=O)[O-])cc1Cl [I23]	12 ± 9 nM	80	–
